Measurements from patent publication US9987368B2, “Pharmaceutical composition comprising polypeptide” (SANTEN PHARMACEUTICAL CO., LTD., priority 2015, dated 2018).

Legend:
[1] = test system: VEGF-induced HUVEC proliferation; details: US 2007/0149574; cited from earlier work
[2] = Dissolution performance evaluation test; assay type: physicochemical; details: for Property: visually checked
Method: Drug dissolving abilities of various solutions were examined.
The compound represented by the above formula (2) (2-[[[2-[(hydroxyacetyl)amino]-4-pyridinyl]methyl]thio]-N-[4-(trifluoromethoxy)phenyl]-3-pyridinecarboxamide, hereinafter also referred to as the drug A; prepared in accordance with the method described in the specification of US Patent Application Publication No. 2007/0149574) was added to each solvent (total 1 mL) out of various solvents of DMSO (GAYLORD), PEG 400 (Nacalai Tesque), and water, and was stirred at room temperature (25° C.) overnight (for 8 hours). Then, the properties of the resultant solvents were visually checked.

[3] = test system: adjuvant arthritis models in rats; details: US 2007/0149574; cited from earlier work
[4] = test system: choroidal neovascularization models in rats; details: US 2007/0149574; cited from earlier work
[5] = test system: cancer models in mice; details: US 2007/0149574; cited from earlier work
[6] = Depot formation evaluation test (2): solvents of the polypeptide A; assay type: physicochemical
Method: Solvents of the polypeptide A were examined.
Compositions 2 to 6 and Comparative Examples 6 and 7 were prepared by adding 0.01 mL of an aqueous solution of the polypeptide A at 1% (w/v) (containing 1% by mass of the polypeptide A per 100 mL of water) to 0.09 mL of each of various solvents, followed by stirring. 0.005 mL of each of the compositions was administered to 1 mL of the Dulbecco's phosphate buffered saline (+), and the formation of a depot was visually checked.

[7] = Depot formation evaluation test (1): gelatinizers in DMSO/water; assay type: physicochemical; details: solution of DMSO/water at the volume ratio (9:1)
Method: Depot (deposited mass) formations of various kinds of gelatinizers were examined.
Compositions 1 to 6 were prepared by blending each of various kinds of gelatinizers to a solvent of DMSO/water (volume ratio of 9:1) such that the gelatinizer is contained at 0.1% (w/v) (0.1% by mass of the gelatinizer is contained per 100 mL of the solution of DMSO/water). Then, calcium chloride dihydrate and magnesium chloride hexahydrate were dissolved in Dulbecco's phosphate buffered saline (−) (Product No. D-5652 manufactured by Sigma-Aldrich) to prepare Dulbecco's phosphate buffered saline (+). 0.005 mL of each of the compositions was added to 1 mL of the Dulbecco's phosphate buffered saline (+), and the formation of a depot was visually checked. The formation of a depot was evaluated in such a way that the depot is determined as formed if a mass formed of the composition deposited is observed.

| Property ([2]; Test 1: Drug A 20 mg in DMSO 0.9 mL + water 0.1 mL, stirred at room temperature (25° C.) overnight) | Property ([2]; Test 2: Drug A 60 mg in DMSO 0.9 mL + water 0.1 mL, stirred at 25° C. overnight) | Property ([2]; Test 3: Drug A 60 mg in water 1 mL, stirred at 25° C. overnight) | Property ([2]; Test 4: Drug A 25 mg in PEG 400 1 mL, stirred at 25° C. overnight) | Property ([2]; Test 5: Drug A 25 mg in PEG 400 0.9 mL + water 0.1 mL, stirred at 25° C. overnight) | Property ([2]; Test 6: Drug A 25 mg in PEG 400 0.8 mL + water 0.2 mL, stirred at 25° C. overnight) | Property ([2]; Test 7: Drug A 25 mg in water 1 mL, stirred at 25° C. overnight) | Dissolution of the drug in solution containing DMSO or PEG 400 ([2]; solution containing DMSO or PEG 400) | Dissolution of the drug in water ([2]; water) | Molecule | cell proliferation inhibitory action [1] | paw edema inhibitory action [3] | choroidal neovascularization inhibitory action [4] | tumor growth inhibitory action [5] | Depot formation ([6]; DMSO, PEG 200, PEG 400, glycofurol and N-methylpyrrolidone used as the solvents) | Depot formation ([6]; ethanol and N,N-dimethylacetamide used as the solvents) | Depot formation [7] |
| --- | --- | --- | --- | --- | --- | --- | --- | --- | --- | --- | --- | --- | --- | --- | --- | --- |
| Solution | Solution | Suspension | Solution | Solution | Solution | Suspension | can dissolve the drug | cannot be dissolved in water | O=C(CO)Nc1cc(CSc2ncccc2C(=O)Nc2ccc(OC(F)(F)F)cc2)ccn1 [Drug A, 2-[[[2-[(hydroxyacetyl)amino]-4-pyridinyl]methyl]thio]-N-[4-(trifluoromethoxy)phenyl]-3-pyridinecarboxamide] | demonstrated a cell proliferation inhibitory action | demonstrated a paw edema inhibitory action | demonstrated a choroidal neovascularization inhibitory action | demonstrated a tumor growth inhibitory action | – | – | – |
| – | – | – | – | – | – | – | – | – | Ac-(Arg-Ala-Asp-Ala)4-NH2 [polypeptide A] | – | – | – | – | formed a depot | did not form a depot | formed a depot |
